One may read the EC50 as the midpoint of the concentration-response curve.

This passage reports EC50 results from patent US20240425524A1, “SPIROTRICYCLE RIPK1 INHIBITORS AND METHODS OF USES THEREOF” (Merck Sharp & Dohme LLC, priority 2021, published 2024).

In the experiment the target is RIPK1 (Homo sapiens (Human), UniProt Q13546). As to the kind of experiment: RIPK1-ADP-Glo Enzymatic Assay. The format is biochemical. Particulars: recombinant GST-RIPK1 kinase domain (residues 1-327), 25 nM, ten-point titration, 30 minutes pre-incubation. In outline: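 GST-RIPK1 kinase domain (residues 1-327, Sf21-expressed; 25 nM final) was pre-incubated 30 min at ambient temperature with compound (10-point 1:3 series from 100000 nM, 1% DMSO) in HEPES pH 7.3 buffer with 20 mM MgCl2. The reaction was started with 900 μM ATP (addition solution) and 3 μM dephosphorylated MBP and ran 150 min. Read-out was ADP-Glo luminescence, with EC50 from a four-parameter fit.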
RIPK1, sequence (Q13546 1-327): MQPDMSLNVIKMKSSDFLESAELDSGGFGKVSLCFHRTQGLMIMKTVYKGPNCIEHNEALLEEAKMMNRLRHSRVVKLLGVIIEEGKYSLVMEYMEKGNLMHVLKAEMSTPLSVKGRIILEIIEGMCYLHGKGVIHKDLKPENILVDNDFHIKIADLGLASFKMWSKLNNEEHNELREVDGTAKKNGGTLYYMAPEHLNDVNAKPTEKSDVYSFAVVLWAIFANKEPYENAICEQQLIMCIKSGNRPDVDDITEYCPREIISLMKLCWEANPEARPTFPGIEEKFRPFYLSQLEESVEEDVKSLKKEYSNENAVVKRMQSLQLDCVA
A general note: ADP-Glo turns the ADP formed in a reaction into a luminescent signal.
Consider `CC(=O)c1cnc(N2CCC3(CC2)CN2CC[C@@H](c4cc(F)cc(F)c4)N2C3=O)cc1Cl` [Example 1.62, (S)-1-(5-acetyl-4-chloropyridin-2-yl)-7′-(3,5-difluorophenyl)dihydro-1′H,3′H,5′H-spiro[piperidine-4,2′-pyrazolo[1,2-a]pyrazol]-1′-one], for which the EC50 was 20 nM.
On to `Cc1ccnc(N2CCC3(CC2)CN2CC[C@@H](c4cc(F)cc(F)c4)N2C3=O)n1` [Example 1.27, (S)-7′-(3,5-difluorophenyl)-1-(4-methylpyrimidin-2-yl)dihydro-1′H,3′H,5′H-spiro[piperidine-4,2′-pyrazolo[1,2-a]pyrazol]-1′-one], for which the concentration for a half-maximal effect (EC50) stood at 637 nM.
In the case of `O=C(c1cncc(F)c1)N1CCC2(CC1)CN1CC[C@@H](c3cc(F)cc(F)c3)N1C2=O` [Example 4.17, (S)-7′-(3,5-difluorophenyl)-1-(5-fluoronicotinoyl) dihydro-1′H,3′H,5′H-spiro[piperidine-4,2′-pyrazolo[1,2-a]pyrazol]-l′-one], the half-maximal effective concentration (EC50) turned out to be 446 nM.
The value for `COc1cc(N2CCC3(CC2)CN2CC[C@@H](c4cc(F)cc(F)c4)N2C3=O)ncn1` [Example 1.83, (S)-7′-(3,5-difluorophenyl)-1-(6-methoxypyrimidin-4-yl)dihydro-1′H,3′H,5′H-spiro[piperidine-4,2′-pyrazolo[1,2-a]pyrazol]-1′-one] was 28 nM; that for `O=C1N2[C@H](c3cc(F)cc(F)c3)CCN2CC12CCN(c1cccc(C(F)(F)F)n1)CC2` [Example 1.63, (S)-7′-(3,5-difluorophenyl)-1-(6-(trifluoromethyl)pyridin-2-yl)dihydro-1′H,3′H,5′H-spiro[piperidine-4,2′-pyrazolo[1,2-a]pyrazol]-1′-one] was 83 nM.
The value for `N#Cc1ccnc(N2CCC3(CC2)CN2CC[C@@H](c4cc(F)cc(F)c4)N2C3=O)n1` [Example 1.75, (S)-2-(7′-(3,5-difluorophenyl)-1′-oxodihydro-1′H,3′H,5′H-spiro[piperidine-4,2′-pyrazolo[1,2-a]pyrazol]-1-yl)pyrimidine-4-carbonitrile] was 49 nM; that for `O=C1N2[C@H](c3cc(F)cc(F)c3)CCN2CC12CCN(c1ccnc(C3CC3)n1)CC2` [Example 1.46, (S)-1-(2-cyclopropylpyrimidin-4-yl)-7′-(3,5-difluorophenyl)dihydro-1′H,3′H,5′H-spiro[piperidine-4,2′-pyrazolo[1,2-a]pyrazol]-1′-one] was 59 nM; that for `Cc1cc(N2CCC3(CC2)CN2CC[C@@H](c4cc(F)cc(F)c4)N2C3=O)ccn1` [Example 2.3, (S)-7′-(3,5-difluorophenyl)-1-(2-methylpyridin-4-yl)dihydro-l′H,3′H,5′H-spiro[piperidine-4,2′-pyrazolo[1,2-a]pyrazol]-1′-one] was 501 nM.
Then `N#Cc1cc(Cl)nc(N2CCC3(CC2)CN2CC[C@@H](c4cc(F)cc(F)c4)N2C3=O)c1` [Example 1.52, (S)-2-chloro-6-(7′-(3,5-difluorophenyl)-1′-oxodihydro-1′H,3′H,5′H-spiro[piperidine-4,2′-pyrazolo[1,2-a]pyrazol]-1-yl)isonicotinonitrile], with 54 nM.
